Experimental data: paper PMC5159279 (Hypertension (Dallas, Tex. : 1979), 2016)

Key:
[1] = tested on: hemoglobin in red blood cells; assay: Red blood cell oxygen p50; conditions: fresh human blood; 5 minutes incubation; HbαX 30 μmol/L; n=3
[2] = tested on: mice with AngII-induced hypertension; assay: Radiotelemetry blood pressure, AngII-induced hypertensive mice; type: in vivo; conditions: AngII 1000 ng/kg/min by osmotic mini-pump; from a baseline of 110 mmHg
[3] = tested on: arterioles from adipose biopsies of patients with hypertension; assay: Human ex vivo vasoreactivity, phenylephrine cumulative dose response; conditions: cumulative dose response without HbαX

FPYFSTKLTT [control peptide]
oxygen p50 of hemoglobin in RBCs [1]: did not significantly change the oxygen p50

Angiotensin II [AngII]
systolic blood pressure on AngII [2]: ~ 170 mmHg

CNC[C@H](O)c1cccc(O)c1 [phenylephrine]
responsiveness of human arterioles to PE [3]: responsive
